Molecules are shown by their SMILES.

The target in the assay is T1, CDK2 (Homo sapiens, UniProt P24941).
T1 construct: endogenous in cells; host or cells: OVCAR3 cells
As to the kind of experiment: Phospho-RB measurement in OVCAR3 cells (HTRF phospho-RB S807/811). Format: cell-based. The conditions noted are these: phosphorylation of RB protein at S807/811, HTRF, 24 h compound treatment, 0.3 to 10,000 nM, read-out: pRb (uM). In a few lines:
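IC50 values come from four-parameter logistic fits of the DMSO-normalised 665/620 nm TR-FRET ratio for phospho-RB (S807/811). Antibody detection ran 4 h at room temperature.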
A general note: In TR-FRET formats the signal depends on donor and acceptor labels being close together.
Regarding `C[C@@H]1CN(C2CC(F)(F)C2)C[C@@H](C)N1c1nc(-c2cccc(NS(=O)(=O)c3c(F)cccc3F)c2F)c(-c2ccnc(NC3CC4(C3)CS(=O)(=O)C4)n2)s1` [Example 61, N-(3-(2-((2R,6R)-4-(3,3-difluorocyclobutyl)-2,6-dimethylpiperazin-1-yl)-5-(2-((2,2-dioxido-2-thiaspiro[3.3]heptan-6-yl)amino)-pyrimidin-4-yl)thiazol-4-yl)-2-fluorophenyl)-2,6-difluoro-benzenesulfonamide], the IC50 was found to be 0.34 µM. The figure for `O=S1(=O)C[C@@H]2[C@H](C1)[C@H]2Nc1nccc(-c2sc(N3C4CCC3CN(C3CC3)C4)nc2-c2cccc(NS(=O)(=O)c3c(F)cccc3C(F)(F)F)c2F)n1` [Example 130, N-(3-(2-(3-cyclopropyl-3,8-diazabicyclo[3.2.1]octan-8-yl)-5-(2-(((1R,5S,6r)-3,3-dioxido-3-thiabicyclo[3.1.0]hexan-6-yl)amino)-pyrimidin-4-yl)thiazol-4-yl)-2-fluorophenyl)-2-fluoro-6-(trifluoromethyl)benzenesulfonamide] is 0.45 µM.

`O=S1(=O)C[C@@H]2[C@H](C1)[C@H]2Nc1nccc(-c2sc(C34CCC(CC3)C4)nc2-c2cccc(NS(=O)(=O)c3c(F)cccc3F)c2F)n1` [Example 99, N-(3-(2-(bicyclo[2.2.1]heptan-1-yl)-5-(2-(((1R,5S,6r)-3,3-dioxido-3-thiabicyclo[3.1.0]hexan-6-yl)amino)pyrimidin-4-yl)thiazol-4-yl)-2-fluorophenyl)-2,6-difluorobenzenesulfonamide]: the IC50 stood at 0.06 µM.

The values above are taken from patent publication US12331026B2 (NiKang Therapeutics, Inc., priority 2022, dated 2025).
